Several values for one entry are separate records, joined by “and”; a condition that tells them apart may be missing. Identical values can stand only once. Where a SMILES comes first, the peptide text is derived from it. [ ]: non-standard residue; d: D form. Hyp = O=C(O)[C@@H]1C[C@@H](O)CN1
Test system: Fas Ligand
Assay: Example 9 Luminex, LPS hPBMCs: Fas Ligand
Assay type: cell-based, human
Details: for Fas Ligand Concentration / Fas Ligand conc/live cell / MFI, bead Fas Ligand: single replicates
Experimental: Treatment Human PBMCs were pretreated with YY-101, YDE-011 and YDE-043 or reference compound; Xiidra® at various concentration (ranging from 1 nM to 100 uM) for 2 h before stimulation. An equal volume of 0.5% DMSO was used as a vehicle control. Then, the cells were treated with LPS at 5 ug/ml. The supernatants from treated cells were harvested at 24 h and placed in a 96 well for Luminex cytokine & chemokine profiling using a Luminex 200 multiplex assay (Luminex; R&D system, USA).
The main study arm with triplicate wells per group in a 24-well plate: • 1. Blank • 2. PBMC: 0.5% DMSO • 3. PBMC+LPS (5 ug/ml) • 4. PBMC+YY-101 100 uM • 5. PBMC+YY-101 10 uM • 6. PBMC+YY-101 1 uM • 7. PBMC+YY-101 0.1 uM • 8. PBMC+YY-101 0.01 uM • 9. PBMC+LPS (5 ug/ml)+Xiidra®100 uM • 10. PBMC+LPS (5 ug/ml)+Xiidra® 10 uM • 11. PBMC+LPS (5 ug/ml)+Xiidra® 1 uM • 12. PBMC+LPS (5 ug/ml)+Xiidra®0.1 uM • 13. PBMC+LPS (5 ug/ml)+Xiidra®0.01 uM • 14. PBMC+LPS (5 ug/ml)+Xiidra®0.001 uM • 15. PBMC+LPS (5 ug/ml)+YY-101 100 uM • 16. PBMC+LPS (5 ug/ml)+YY-101 10 uM • 17. PBMC+LPS (5 ug/ml)+YY-101 1 uM • 18. PBMC+LPS (5 ug/ml)+YY-101 0.1 uM • 19. PBMC+LPS (5 ug/ml)+YY-101 0.01 uM • 20. PBMC+LPS (5 ug/ml)+YY-101 0.001 uM • 21. PBMC+LPS (5 ug/ml)+YDE-011 100 uM • 22. PBMC+LPS (5 ug/ml)+YDE-011 10 uM • 23. PBMC+LPS (5 ug/ml)+YDE-011 1 uM • 24. PBMC+LPS (5 ug/ml)+YDE-011 0.1 uM • 25. PBMC+LPS (5 ug/ml)+YDE-011 0.01 uM • 26. PBMC+LPS (5 ug/ml)+YDE-011 0.001 uM • 27. PBMC+LPS (5 ug/ml)+YDE-043 100 uM • 28. PBMC+LPS (5 ug/ml)+YDE-043 10 uM • 29. PBMC+LPS (5 ug/ml)+YDE-043 1 uM • 30. PBMC+LPS (5 ug/ml)+YDE-043 0.1 uM • 31. PBMC+LPS (5 ug/ml)+YDE-043 0.01 uM • 32. PBMC+LPS (5 ug/ml)+YDE-043 0.001 uM
Multiplex assay was used to measure 30 cytokines and chemokines. The 1:2, 1:10 and 1:200 diluted cell supernatant and serial dilution of the standard were dispensed into a 96 well plate at 50 ul/well. Then, the pre-mixed cocktail of antibody-coated magnetic beads was dispensed at 50 ul/well and incubated at room temperature for 2 h in a horizontal orbital microplate shaker at 800±500 rpm. The beads were washed using a magnetic device to prevent loss. The biotin-antibody was dispensed in 50 ul of each well and incubated at room temperature for 1 h in a shaker at 800±500 rpm. After washing, streptavidin-PE was added at 50 ul/well and incubated at room temperature for 30 min in a shaker under the same conditions. Finally, after washing, wash buffer (100 ul/well) was added to the plate and incubated in a shaker for 2 min. The Luminex™ 200 setting were set according to the manufacturer's protocol. The data was calculated with a standard five-parameter logistic nonlinear regression analysis of the data (xPonent software 4.2, USA). The levels of cytokine/chemokine are normalized to the live cell counts (1×10^5 cells/mL) and presented as concentrations per mL (pg/mL or ng/mL).

[1] = PBMC + LPS(5 ug/ml) + test article 0.001 uM
[2] = PBMC + LPS(5 ug/ml) + test article 0.01 uM
[3] = PBMC + LPS(5 ug/ml) + test article 0.1 uM
[4] = PBMC + LPS(5 ug/ml) + test article 1 uM
[5] = PBMC + LPS(5 ug/ml) + test article 10 uM
[6] = PBMC + LPS(5 ug/ml) + test article 100 uM

Structure (SMILES)	Fas Ligand Concentration, Mean [1] [pg/mL]	Fas Ligand conc/live cell, Mean [1] [pg/10^5]	MFI, bead Fas Ligand, Mean [1]	Fas Ligand Concentration [1]	Fas Ligand conc/live cell [1]	MFI, bead Fas Ligand [1]	Fas Ligand Concentration, Mean [2] [pg/mL]	Fas Ligand conc/live cell, Mean [2] [pg/10^5]	MFI, bead Fas Ligand, Mean [2]	Fas Ligand Concentration [2]	Fas Ligand conc/live cell [2]	MFI, bead Fas Ligand [2]	Fas Ligand Concentration, Mean [3] [pg/mL]	Fas Ligand conc/live cell, Mean [3] [pg/10^5]	MFI, bead Fas Ligand, Mean [3]	Fas Ligand Concentration [3]	Fas Ligand conc/live cell [3]	MFI, bead Fas Ligand [3]	Fas Ligand Concentration, Mean [4] [pg/mL]	Fas Ligand conc/live cell, Mean [4] [pg/10^5]	also measured
CC(C)C[C@H](NC(=O)[C@H](CCC(N)=O)NC(=O)CNC(=O)[C@@H]1C[C@@H](O)CN1)C(=O)NCC(=O)O [YDE-043] (H-[Hyp]GQLG-OH; N-terminus and C-terminus assumed)	16.8	3.4	22.7	17.1 pg/mL and 20.4 pg/mL and 13.1 pg/mL	3.9 pg/10^5 and 3.4 pg/10^5 and 2.8 pg/10^5	23.0 and 28.0 and 17.0	21.9	4.3	30.2	19.1 pg/mL and 15.7 pg/mL and 31.0 pg/mL	4.2 pg/10^5 and 2.4 pg/10^5 and 6.2 pg/10^5	26.0 and 21.0 and 43.5	13.2	2.5	17.2	14.4 pg/mL and 12.7 pg/mL and 12.4 pg/mL	2.9 pg/10^5 and 2.3 pg/10^5 and 2.2 pg/10^5	19.0 and 16.5 and 16.0	16.6	3.2	MFI, bead Fas Ligand, Mean [4]: 22.3; Fas Ligand Concentration [4]: 13.7 pg/mL and 15.7 pg/mL and 20.4 pg/mL; Fas Ligand conc/live cell [4]: 2.4 pg/10^5 and 3.3 pg/10^5 and 3.9 pg/10^5; MFI, bead Fas Ligand [4]: 18.0 and 21.0 and 28.0; Fas Ligand Concentration, Mean [5]: 16.4 pg/mL; Fas Ligand conc/live cell, Mean [5]: 3.0 pg/10^5; MFI, bead Fas Ligand, Mean [5]: 22.0; Fas Ligand Concentration [5]: 16.4 pg/mL and 17.1 pg/mL and 15.7 pg/mL; Fas Ligand conc/live cell [5]: 3.2 pg/10^5 (2×) and 2.8 pg/10^5; MFI, bead Fas Ligand [5]: 22.0 and 23.0 and 21.0; Fas Ligand Concentration, Mean [6]: 13.2 pg/mL; Fas Ligand conc/live cell, Mean [6]: 2.1 pg/10^5; MFI, bead Fas Ligand, Mean [6]: 17.3; Fas Ligand Concentration [6]: 15.0 pg/mL and 11.4 pg/mL; Fas Ligand conc/live cell [6]: 2.4 pg/10^5 and 1.8 pg/10^5; MFI, bead Fas Ligand [6]: 20.0 and 14.5
CC(C)C[C@H](NC(=O)CNC(=O)[C@H](CC(C)C)NC(=O)[C@H](CCC(N)=O)NC(=O)CNC(=O)[C@@H]1C[C@@H](O)CN1)C(=O)N[C@@H](C)C(=O)NCC(=O)N1CCC[C@H]1C(=O)N[C@@H](CCCCN)C(=O)O [YDE-011] (H-[Hyp]GQLGLAGPK-OH)	16.8	3.2	22.7	15.7 pg/mL and 18.4 pg/mL and 16.4 pg/mL	3.5 pg/10^5 and 3.2 pg/10^5 and 2.8 pg/10^5	21.0 and 25.0 and 22.0	15.5	2.7	20.7	17.1 pg/mL and 13.7 pg/mL and 15.7 pg/mL	2.7 pg/10^5 and 2.2 pg/10^5 and 3.1 pg/10^5	23.0 and 18.0 and 21.0	17.3	3.0	23.3	19.1 pg/mL and 17.7 pg/mL and 15.0 pg/mL	2.9 pg/10^5 and 3.5 pg/10^5 and 2.6 pg/10^5	26.0 and 24.0 and 20.0	15.9	3.2	MFI, bead Fas Ligand, Mean [4]: 21.3; Fas Ligand Concentration [4]: 17.4 pg/mL and 15.4 pg/mL and 15.0 pg/mL; Fas Ligand conc/live cell [4]: 3.2 pg/10^5 (2×) and 3.1 pg/10^5; MFI, bead Fas Ligand [4]: 23.5 and 20.5 and 20.0; Fas Ligand Concentration, Mean [5]: 17.3 pg/mL; Fas Ligand conc/live cell, Mean [5]: 3.3 pg/10^5; MFI, bead Fas Ligand, Mean [5]: 23.3; Fas Ligand Concentration [5]: 19.7 pg/mL and 17.7 pg/mL and 14.4 pg/mL; Fas Ligand conc/live cell [5]: 3.7 pg/10^5 and 3.1 pg/10^5 (2×); MFI, bead Fas Ligand [5]: 27.0 and 24.0 and 19.0; Fas Ligand Concentration, Mean [6]: 13.3 pg/mL; Fas Ligand conc/live cell, Mean [6]: 2.2 pg/10^5; MFI, bead Fas Ligand, Mean [6]: 17.3; Fas Ligand Concentration [6]: 11.7 pg/mL and 13.1 pg/mL and 15.0 pg/mL; Fas Ligand conc/live cell [6]: 1.9 pg/10^5 and 2.1 pg/10^5 and 2.5 pg/10^5; MFI, bead Fas Ligand [6]: 15.0 and 17.0 and 20.0

From patent publication US20230146455A1, “TREATMENT OF INFLAMMATORY DISEASES WITH PEPTIDES AND PHARMACEUTICAL COMPOSITIONS” (Yuyu Pharma, Inc., priority 2020, published 2023)
